Laboratory results as given in PMC5131364, “Pharmacologic modulation of RORγt translates to efficacy in preclinical and translational models of psoriasis and inflammatory arthritis” (Scientific Reports, 2016).
Read-outs that look alike come from different tables or passages of the source.

Columns and labels:
RORβ = molecular target: T1, RORβ (Homo sapiens, UniProt Q92753); test: 1-hybrid reporter assay in HEK293T cells (GAL4-RORβ); format: cell-based; details: HEK-293T
T1 construct: NP_008845, aa 201–459; expressed in transfected cells; host or cells: HEK293T
Protocol: The reporter assay was performed by transient co-transfection of HEK293T cells with pCMV-BD (Stratagene #211342) containing the GAL4 DNA-binding domain fused with full-length human RORγt (Genbank accession no. NP_001001523, aa 1–497), pFR-Luc reporter and pRL-CMV reporter (Promega #E2261) plus Carrier DNA (Clontech # 630440) using PEI solution (Sigma Aldrich cat# 40872-7) in a 96-well plate. […] Medium was removed and cells were lysed with Passive Lysis Buffer (Promega). Firefly luciferase buffer was then added and firefly luciferase luminescence was read on BMG LUMIstar OPTIMA luminescence plate reader. One second later, renilla luciferase buffer was then added and renilla luciferase luminescence was read to measure cell viability. For RORα and RORβ activity, similar assays were performed except cells were transfected with pCMV-BD-RORα (Genbank accession no. NP_599022, aa 305–556) or pCMV-BD-RORβ (Genbank accession no. NP_008845, aa 201–459).

[1] = test system: CD4+ T cells under Th1 conditions; test: Mouse CD4+ T cell in vitro Th1 differentiation; format: cell-based; details: titrated compound, ELISA
Protocol: (§1) Mouse CD4+ T cell in vitro Th1 differentiation
(§2) Total CD4+ T cells were isolated from splenocytes of C57/BL6 mice (Chareles River Labrotory) using a CD4+ T cell isolation kit (Miltenyl Biotec, Auburn, CA), following the manufacturer’s instructions. Cells were resuspended in culture medium (described in Method section of Th17 differentiation) and were added to 96‐well plates at 2x10^5 per well. Titrated JNJ‐54271074 was added to each well at final DMSO concentration of 0.2%. Cells were incubated for 1 hour, after which Th1 cell differentiation medium was added with final concentrations of 1 µg/ml anti‐CD3, 5 µg/mL anti‐CD28 (BD Pharmingen, San Diego, CA), 10 µg/ml anti‐IL4, 10 ng/mL IL‐12, (R&D Systems, Minneapolis, MN). Cells were cultured at 37 °C and 5% CO2 for 3 days. Supernatants were collected and the accumulated cytokines in culture were measured by ELISA kits (R&D Systems, Minneapolis, MN) following manufacturers' instructions.
(§3) IL‐23 induced IL‐17A and IL‐22 production in mouse splenocytes splenocytes were isolated from C57/BL6 mice and resuspended in medium and cultured in 96‐well plates at […] per 100 µL per well. […] Supernatants were collected and the accumulated cytokines in culture were measured by ELISA according to the manufacturer’s instructions (IL‐17A kit from R&D systems, and IL‐22 from Biolegend San Diego). […]

[2] = test system: IL-23-induced psoriasis-like ear skin inflammation in C57BL/6N mice; test: IL-23-induced skin inflammation in mice; format: in vivo, mouse; details: for reduction of IL-17A-producing total CD3+ T cells / reduction of IL-17A-producing γδ+ T cells: 30 mg/kg BID oral
PBMC from healthy donors = test: IL-17A production from PBMC of healthy donors; format: cell-based; details: Homo sapiens, typically observed
Excerpt: Frozen PBMCs of healthy and rheumatoid arthritis patients were obtained from SeraCare Life Sciences (Gaithersburg, MD). […] 3 days later, supernatants were collected and analyzed by MSD multi-spot assay or ELISA for IL-17A, IL-22 and IL-13 production.

mouse splenocytes = test: IL-23 induced IL-17A and IL-22 production in mouse splenocytes; format: cell-based; details: Splenocyte, 96 h, IL-23 and IL-2, 4 days
Protocol: as §1, §2, §3

T1 sequence (Q92753 212-470): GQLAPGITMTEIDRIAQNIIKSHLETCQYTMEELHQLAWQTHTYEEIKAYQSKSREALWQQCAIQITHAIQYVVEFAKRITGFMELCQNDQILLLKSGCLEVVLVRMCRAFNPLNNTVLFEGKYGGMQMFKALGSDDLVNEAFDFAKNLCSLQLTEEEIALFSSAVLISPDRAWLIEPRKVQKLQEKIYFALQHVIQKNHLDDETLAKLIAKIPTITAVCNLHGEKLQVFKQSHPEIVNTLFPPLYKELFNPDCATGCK

## COc1nc2ccc([C@@](O)(c3ccc(C)nc3C)c3cnnn3C)cc2c(Cl)c1Cc1ccc(C(F)(F)F)cc1 [JNJ-54271074]
RORβ
  IC50: > 10000 nM
[1]
  IFNγ production under Th1 conditions: minimal effects
[2]; 3, 10, 30 and 60 mg/kg BID oral, 7 days, dose-dependent
  skin inflammation (total skin histology scores, abscesses, acanthosis): decreased skin inflammation
[2]; 30 and 60 mg/kg, did not reach statistical significance
  ear mRNA expression of IL-17A, IL-22 and TNFα: suppressed
[2]; DLNs
  reduction of IL-17A-producing total CD3+ T cells: 71%
  reduction of IL-17A-producing γδ+ T cells: 43%
[2]; ear skin and DLNs, 30 mg/kg BID
  FOXP3+ CD4+ T cells populations, vehicle vs compound treated groups: very similar
[2]; ear skin
  reduction of IL-17A-producing total CD3+ T cells: 40%
  reduction of IL-17A-producing γδ+ T cells: 60%
[2]; oral BID, 7 days
  ear mRNA expression of IL-17F, IFNγ and IL-6: significantly inhibited
PBMC from healthy donors
  IC50: 3 ± 0.9 nM
Mouse splenocytes; no anti-CD3/anti-CD28, read-out: IC50, IL-23-stimulated IL-17A production
  IC50: 19 nM
Mouse splenocytes; no anti-CD3/anti-CD28, read-out: IC50, IL-23-stimulated IL-22 production
  IC50: 37 nM
